The values that follow come from ChEMBL document CHEMBL5465560, “Selectivity Literature for EUbOPEN Chemogenomic Library” (2024).

For experiment [1], the target named is T1, Phosphatidylinositol 4,5-bisphosphate 3-kinase catalytic subunit delta isoform (Homo sapiens) (UniProt O00329).
T1 sequence (whole entry): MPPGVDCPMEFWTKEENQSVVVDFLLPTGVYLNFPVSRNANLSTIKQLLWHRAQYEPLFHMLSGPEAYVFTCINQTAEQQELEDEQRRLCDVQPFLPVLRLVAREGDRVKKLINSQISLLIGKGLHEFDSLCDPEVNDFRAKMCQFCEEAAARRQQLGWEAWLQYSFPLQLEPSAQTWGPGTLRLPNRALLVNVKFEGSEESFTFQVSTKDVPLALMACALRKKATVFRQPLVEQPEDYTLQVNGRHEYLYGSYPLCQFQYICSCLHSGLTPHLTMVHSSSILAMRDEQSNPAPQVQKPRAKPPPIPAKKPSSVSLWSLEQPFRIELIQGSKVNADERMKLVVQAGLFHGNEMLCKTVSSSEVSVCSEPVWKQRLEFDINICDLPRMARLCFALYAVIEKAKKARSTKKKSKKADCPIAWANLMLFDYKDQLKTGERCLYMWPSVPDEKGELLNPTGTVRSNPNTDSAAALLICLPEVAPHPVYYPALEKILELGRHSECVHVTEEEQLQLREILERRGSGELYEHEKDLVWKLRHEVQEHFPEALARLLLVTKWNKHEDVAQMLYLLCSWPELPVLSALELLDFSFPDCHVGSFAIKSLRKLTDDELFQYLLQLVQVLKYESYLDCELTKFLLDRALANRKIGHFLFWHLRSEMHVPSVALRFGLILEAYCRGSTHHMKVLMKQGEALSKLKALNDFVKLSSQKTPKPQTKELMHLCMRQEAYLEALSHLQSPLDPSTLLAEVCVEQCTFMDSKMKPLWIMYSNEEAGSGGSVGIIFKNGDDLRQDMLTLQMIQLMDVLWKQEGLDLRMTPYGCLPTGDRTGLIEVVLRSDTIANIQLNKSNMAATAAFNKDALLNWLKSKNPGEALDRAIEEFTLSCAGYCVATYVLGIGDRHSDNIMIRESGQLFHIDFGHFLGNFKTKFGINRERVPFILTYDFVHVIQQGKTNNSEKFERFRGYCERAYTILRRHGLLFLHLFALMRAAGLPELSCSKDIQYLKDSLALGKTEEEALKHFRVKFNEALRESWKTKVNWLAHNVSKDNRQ
The experiment can be described thus: Selectivity interaction (Ambit KINOMEscan and KiNATiv profiling in Jurkat cells) EUB0000090b PIK3CD. It is filed as cell-based. The following applies: at 1 µM.

Experiment [2] has as its target Platelet-derived growth factor receptor beta (Homo sapiens, UniProt P09619). The experiment can be described thus: Selectivity interaction (KinomeScan (DiscoverX)) EUB0000092b PDGFRB. To be noted: at 10 µM.
Experiment [3] has as its target Death-associated protein kinase 2 (Homo sapiens) (UniProt Q9UIK4). To be noted: at 10 µM.
Experiment [4] has as its target T2, Serine/threonine-protein kinase LATS1 (Homo sapiens) (UniProt O95835).
T2 sequence (whole entry): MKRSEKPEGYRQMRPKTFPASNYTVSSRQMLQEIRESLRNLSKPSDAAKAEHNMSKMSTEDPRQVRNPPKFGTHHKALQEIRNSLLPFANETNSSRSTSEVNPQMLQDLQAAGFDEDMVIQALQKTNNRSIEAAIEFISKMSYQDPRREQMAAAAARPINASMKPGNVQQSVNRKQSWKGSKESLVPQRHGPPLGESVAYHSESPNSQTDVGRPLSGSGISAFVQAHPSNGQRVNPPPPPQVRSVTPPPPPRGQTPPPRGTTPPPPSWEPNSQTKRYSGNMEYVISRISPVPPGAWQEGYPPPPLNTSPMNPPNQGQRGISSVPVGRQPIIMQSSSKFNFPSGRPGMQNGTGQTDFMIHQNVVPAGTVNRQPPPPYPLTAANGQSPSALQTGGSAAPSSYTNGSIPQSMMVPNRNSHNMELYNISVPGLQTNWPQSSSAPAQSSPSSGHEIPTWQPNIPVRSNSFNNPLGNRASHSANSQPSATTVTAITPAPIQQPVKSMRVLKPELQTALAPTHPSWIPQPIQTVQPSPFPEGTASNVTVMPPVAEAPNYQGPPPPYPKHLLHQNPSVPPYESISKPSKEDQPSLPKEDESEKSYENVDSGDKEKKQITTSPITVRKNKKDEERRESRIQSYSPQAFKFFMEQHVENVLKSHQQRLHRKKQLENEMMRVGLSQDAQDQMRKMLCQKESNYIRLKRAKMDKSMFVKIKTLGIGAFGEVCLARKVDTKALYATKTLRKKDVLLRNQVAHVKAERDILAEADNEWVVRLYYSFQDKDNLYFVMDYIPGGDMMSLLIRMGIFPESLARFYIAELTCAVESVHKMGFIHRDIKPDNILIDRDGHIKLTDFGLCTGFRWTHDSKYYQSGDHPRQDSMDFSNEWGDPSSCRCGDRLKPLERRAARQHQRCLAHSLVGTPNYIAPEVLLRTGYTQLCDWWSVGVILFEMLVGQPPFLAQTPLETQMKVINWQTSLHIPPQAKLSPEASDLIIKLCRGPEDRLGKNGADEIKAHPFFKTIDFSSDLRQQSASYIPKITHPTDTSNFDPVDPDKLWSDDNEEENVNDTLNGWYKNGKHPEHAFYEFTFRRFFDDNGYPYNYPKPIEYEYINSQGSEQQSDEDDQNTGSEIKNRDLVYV
Briefly: Selectivity interaction (KinomeScan (DiscoverX)) EUB0001619a LATS1. The following applies: at 1 µM.

SMILES strings stand for the structures.

Platelet-derived growth factor receptor beta, sequence (P09619 whole entry): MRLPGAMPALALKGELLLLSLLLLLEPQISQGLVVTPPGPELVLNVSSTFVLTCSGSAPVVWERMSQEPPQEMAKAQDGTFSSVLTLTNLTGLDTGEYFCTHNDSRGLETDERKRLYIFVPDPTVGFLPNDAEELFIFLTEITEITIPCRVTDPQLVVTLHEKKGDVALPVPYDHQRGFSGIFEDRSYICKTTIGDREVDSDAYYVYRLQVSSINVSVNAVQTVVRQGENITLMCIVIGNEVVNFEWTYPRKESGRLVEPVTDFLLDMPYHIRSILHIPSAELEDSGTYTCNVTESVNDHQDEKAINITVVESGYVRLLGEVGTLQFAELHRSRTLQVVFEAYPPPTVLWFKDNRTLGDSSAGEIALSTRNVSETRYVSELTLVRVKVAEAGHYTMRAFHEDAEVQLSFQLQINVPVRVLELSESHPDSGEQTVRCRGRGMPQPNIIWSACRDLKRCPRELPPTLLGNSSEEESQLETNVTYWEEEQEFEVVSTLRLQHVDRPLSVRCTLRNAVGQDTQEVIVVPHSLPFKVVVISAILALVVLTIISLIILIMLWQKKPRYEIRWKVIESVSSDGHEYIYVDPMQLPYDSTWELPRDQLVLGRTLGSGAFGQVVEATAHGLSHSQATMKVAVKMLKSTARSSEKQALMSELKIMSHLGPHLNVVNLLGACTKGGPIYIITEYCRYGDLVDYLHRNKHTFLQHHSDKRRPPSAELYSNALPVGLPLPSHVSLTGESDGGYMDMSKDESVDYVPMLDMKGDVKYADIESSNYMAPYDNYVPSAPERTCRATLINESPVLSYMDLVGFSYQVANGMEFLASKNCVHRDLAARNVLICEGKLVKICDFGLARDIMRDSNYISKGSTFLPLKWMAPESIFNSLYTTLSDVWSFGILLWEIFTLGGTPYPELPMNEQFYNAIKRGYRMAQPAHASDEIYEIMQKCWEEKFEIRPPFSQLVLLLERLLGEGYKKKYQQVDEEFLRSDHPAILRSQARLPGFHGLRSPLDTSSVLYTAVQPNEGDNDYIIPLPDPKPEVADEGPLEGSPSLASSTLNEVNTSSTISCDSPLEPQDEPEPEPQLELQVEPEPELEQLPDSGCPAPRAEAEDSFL
Death-associated protein kinase 2 (Homo sapiens), sequence (Q9UIK4 whole entry, looked up): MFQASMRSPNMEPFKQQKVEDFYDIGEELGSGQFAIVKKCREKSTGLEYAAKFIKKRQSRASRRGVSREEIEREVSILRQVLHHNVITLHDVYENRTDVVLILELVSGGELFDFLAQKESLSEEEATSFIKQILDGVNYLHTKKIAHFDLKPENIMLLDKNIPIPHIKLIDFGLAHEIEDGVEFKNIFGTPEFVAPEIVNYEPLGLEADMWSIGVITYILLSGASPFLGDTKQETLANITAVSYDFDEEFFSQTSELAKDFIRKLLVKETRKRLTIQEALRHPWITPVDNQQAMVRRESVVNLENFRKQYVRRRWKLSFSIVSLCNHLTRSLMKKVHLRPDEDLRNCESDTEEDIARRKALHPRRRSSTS

Take `CN(C)C/C=C/C(=O)Nc1ccc(C(=O)N2CCCC(Nc3ncc(Cl)c(-c4c[nH]c5ccccc45)n3)C2)cc1` (centres undefined): the % of control in experiment [1] was determined as 100%.

On to `CCC(=O)N1CCN(c2ccc(-n3c(=O)ccc4cnc5ccc(-c6cnc7ccccc7c6)cc5c43)cc2C(F)(F)F)CC1`, for which, in experiment [2], the % of control stood at 24%. Molecule `COCC(=O)NC/C=C/c1ccc2ncnc(Nc3ccc(Oc4ccc(C)nc4)c(C)c3)c2c1` [CP-724714] came in with a % of control in experiment [3] of 89%. As to `N#Cc1cccc(-c2c[nH]c3ncnc(N4CCOCC4)c23)c1`, the % of control in experiment [4] is 100%.
